± gives the standard deviation of the reports.
SMILES	glass transition temperature [°C]
*c1cccc(Oc2cccc(Oc3cccc(N4C(=O)c5c(c(-c6ccccc6)c(-c6ccc(-c7c(-c8ccccc8)c8c(c(-c9ccccc9)c7-c7ccccc7)C(=O)N(*)C8=O)cc6)c(-c6ccccc6)c5-c5ccccc5)C4=O)c3)c2)c1 (repeat unit)	280.00
*C(=O)c1ccc2c(c1)C(=O)N(c1ccc(Oc3ccc(C(=O)c4ccc(C(=O)c5ccc(Oc6ccc(N7C(=O)c8ccc(*)cc8C7=O)cc6)cc5)cc4)cc3)cc1)C2=O (repeat unit)	233.00
*CC(*)[Si](C)(C)C (repeat unit)	137.00
*c1ccc(Oc2ccc(S(=O)(=O)c3ccc(Oc4ccc(N5C(=O)c6ccc(Oc7ccc(Oc8ccc9c(c8)C(=O)N(*)C9=O)cc7)cc6C5=O)cc4)cc3)cc2)cc1 (repeat unit)	201.00
*CC(CSC(C)C)O* (repeat unit)	-44.00
*c1ccc(Cc2ccc(N3C(=O)c4ccc(Oc5ccc(C6(c7ccc(Oc8ccc9c(c8)C(=O)N(*)C9=O)cc7)CCC(c7ccccc7)CC6)cc5)cc4C3=O)cc2)cc1 (repeat unit)	232.00
*c1ccc2c(c1)C(=O)N(c1ccc(OCCCCCCCCCCOc3ccc(N4C(=O)c5ccc(C(*)(C(F)(F)F)C(F)(F)F)cc5C4=O)cc3)cc1)C2=O (repeat unit)	143.00
*CC(*)C(=O)OCCCCCCn1c2ccccc2c2ccccc21 (repeat unit)	48.00
*Oc1cccc2ccc(Oc3ccc(NC(=O)c4ccc(Oc5cccc(Oc6ccc(C(=O)Nc7ccc(*)cc7)cc6)c5)cc4)cc3)cc12 (repeat unit)	196.00
*c1ccc2cc(OC(=O)c3cccc(C(=O)Oc4ccc5cc(-c6nc7ccccc7nc6*)ccc5c4)c3)ccc2c1 (repeat unit)	151.00
*Oc1cccc(N(c2ccccc2)c2ccc(-c3ccc(N(c4ccccc4)c4cccc(OC(=O)OCCOCCOC(*)=O)c4)cc3)cc2)c1 (repeat unit)	113.00
*CC(*)(C)C(=O)OCCC[Si](OC)(OC)OC (repeat unit)	9.00
*/C=C(\C#N)C(=O)Nc1cc(-c2ccc(O)c(NC(=O)/C(C#N)=C/c3ccc(/C=C/c4ccc(N(c5ccccc5)c5ccc(N(c6ccccc6)c6ccc(/C=C/c7ccc(*)s7)cc6)cc5)cc4)s3)c2)ccc1O (repeat unit)	221.00
*C(=O)Nc1c(C)cc(Cc2cc(C)c(NC(=O)c3ccc4c(c3)C(=O)N(c3ccc(/N=N/c5ccc(OC(F)(F)F)cc5)c(N5C(=O)c6ccc(*)cc6C5=O)c3)C4=O)c(C)c2)cc1C (repeat unit)	278.00
*O[Si](C)(C)O[Si](C)(C)Oc1ccc(-c2ccc(*)cc2)cc1 (repeat unit)	-4.00
*Oc1ccc(/C=N/N=C/c2ccc(Oc3ccc(C(=O)c4ccc(*)cc4)cc3)cc2)cc1 (repeat unit)	179.00
*Oc1cc(CCC)cc(OC(=O)c2cccc(C(*)=O)c2)c1 (repeat unit)	129.00
*CCCCCCCCOC(=O)Nc1ccc(Cc2ccc(NC(=O)O*)cc2)cc1 (repeat unit)	79.00
*Oc1ccc(CC(NC(=O)CCc2ccc(OC(=O)COCC(*)=O)cc2)C(=O)OC(C)C)cc1 (repeat unit)	80.00
*CCOCCOCCOCCOCCOCCOCCOCCOCCOCCOC(=O)c1ccc(-c2ccc(-c3ccc(C(=O)O*)cc3)cc2)cc1 (repeat unit)	40.00
*c1ccc2oc(-c3cccc(-c4nc5cc(C(*)(C(F)(F)F)C(F)(F)F)ccc5o4)n3)nc2c1 (repeat unit)	329.00

SMILES	glass transition temperature [°C]
*C(=O)c1ccc(Oc2ccc(C(C)(C)c3ccc(Oc4ccc(*)s4)cc3)cc2)cc1 (repeat unit)	151.00
*OP(=O)(Oc1ccc(C(C)(C)c2ccc(*)cc2)cc1)Oc1c(Cl)cccc1Cl (repeat unit)	96.00
*CC(*)(C)C(=O)OCCCCCCCC (repeat unit)	-11.00
*c1ccc(NC(=O)c2cc(C(=O)Nc3ccc(S(*)(=O)=O)cc3)cc(S(=O)(=O)c3ccccc3)c2)cc1 (repeat unit)	307.00
*C(=O)OCCCCCCOC(=O)c1ccc(NC(=O)c2ccc(N3C(=O)c4ccc(*)cc4C3=O)cc2)cc1 (repeat unit)	107.00
*c1ccc(OC(=O)c2cccc(C(=O)Oc3ccc(C4(*)C(=O)Nc5c(Cl)cc(Cl)cc54)cc3)c2)cc1 (repeat unit)	270.00
*c1ccc(Oc2ccc(-c3cc(-c4ccccc4)c4cc(C5(c6ccc7nc(*)cc(-c8ccccc8)c7c6)c6ccccc6C(=O)c6ccccc65)ccc4n3)cc2)cc1 (repeat unit)	320.00
*c1ccc(Oc2ccc(C(c3ccc(Oc4ccc(-c5nnc(*)n5-c5ccc(S(=O)(=O)c6ccccc6)cc5)cc4)cc3)(C(F)(F)F)C(F)(F)F)cc2)cc1 (repeat unit)	211.00
*c1ccc(C(=O)Nc2ccc(N3C(=O)c4ccc(-c5ccc6c(c5)C(=O)N(*)C6=O)cc4C3=O)cc2)cc1 (repeat unit)	335.00
*Nc1ccc(Cc2ccc(NC(=O)c3ccc(P(=O)(c4ccccc4)c4ccc(C(*)=O)cc4)cc3)cc2)cc1 (repeat unit)	307.00
*c1cccc(Oc2ccc(P(=O)(c3ccccc3)c3ccccc3)c(Oc3cccc(-n4c(=O)c5cc6c(=O)n(*)c(=O)c6cc5c4=O)c3)c2)c1 (repeat unit)	251.00
*Oc1ccc(C2(c3ccc(OC(=O)c4ccc(Oc5ccc(C6(c7ccc(Oc8ccc(C(*)=O)cc8)cc7)CCC(C(C)(C)C)CC6)cc5)cc4)cc3)CCCCCCCCCCC2)cc1 (repeat unit)	181.00
*Oc1c(F)c(F)c(Sc2c(F)c(F)c(Oc3ccc(C(c4ccc(*)cc4)(C(F)(F)F)C(F)(F)F)cc3)c(F)c2F)c(F)c1F (repeat unit)	141.50
*c1ccc(Oc2ccc(C(=O)c3ccc(Oc4ccc(C5(*)OC(=O)c6ccccc65)cc4)cc3)cc2)cc1 (repeat unit)	218.00
*c1ccc(-c2ccc(N3C(=O)c4ccc(-c5ccc6c(c5)C(=O)N(*)C6=O)cc4C3=O)c(C)c2)cc1C (repeat unit)	302.00
*CC(*)c1ccc(CCCCCCCCCCCCCC)cc1 (repeat unit)	-36.00
*CC(*)C(=O)OC1CC2CCC1(C)C2(C)C (repeat unit)	100.00
*c1ccc(Oc2ccc(NC(=O)c3cccc(C(=O)Nc4ccc(Oc5ccc(-n6c(=O)c7cc8c(=O)n(*)c(=O)c8cc7c6=O)cc5)cc4)c3)cc2)cc1 (repeat unit)	282.00
*c1ccc(Oc2ccc(-c3nc4cc(Oc5ccc(NC(=O)c6cc(C(=O)Nc7ccc(Oc8ccc9nc(-c%10ccc([N+](=O)[O-])cc%10)c(*)nc9c8)cc7)cc(N7C(=O)c8ccccc8C7=O)c6)cc5)ccc4nc3-c3ccc([N+](=O)[O-])cc3)cc2)cc1 (repeat unit)	305.00
*CCCCCCCCCCC(=O)O* (repeat unit)	-46.0
*c1cccc(-c2nc3cc(-c4ccc5nc(*)c(-c6ccc7ccccc7c6)nc5c4)ccc3nc2-c2ccc3ccccc3c2)c1 (repeat unit)	317.00

SMILES	glass transition temperature [°C]
*c1cccc(S(=O)(=O)c2cccc(N3C(=O)c4ccc(Oc5ccc6c(c5)C(=O)N(*)C6=O)cc4C3=O)c2)c1 (repeat unit)	246.00 ± 4.7
*C(=O)Nc1ccc(Oc2cccc(NC(=O)c3ccc4c(c3)C(=O)N(c3ccc(Oc5ccc(N6C(=O)c7ccc(*)cc7C6=O)cc5)cc3)C4=O)c2)cc1 (repeat unit)	236.00
*CC(*)C(=O)OC (repeat unit) [Poly(methyl acrylate) ]	9 ± 2
*CC#CC#CCOc1ccc(C(=O)OCCN(CCOC(=O)c2ccc(O*)cc2)c2ccc(/N=N/c3ccc(C#N)cc3)cc2)cc1 (repeat unit)	121.00
*CCCCCCCCNC(=O)c1cccc(C(=O)N*)c1 (repeat unit)	110.00
*CC(*)(CC(=O)OCCCl)C(=O)OCCCl (repeat unit)	43.00
*O[Si](C)(C)c1cccc(C(F)(F)C(F)(F)C(F)(F)c2cccc([Si](*)(C)C)c2)c1 (repeat unit)	-8.00
*O[Si](C)(C)c1cc(OCCO)c([Si](*)(C)C)cc1OCCO (repeat unit)	73.00
*Nc1cc(NC(=O)c2cccc(C(*)=O)c2)cc(C(=O)Oc2ccc(Oc3ccc(C#N)c(C#N)c3)cc2)c1 (repeat unit)	305.00
*OC(CCl)C(*)CCl (repeat unit)	95.00
*CC(*)c1ccc(C(O)CCN2CCOCC2)cc1 (repeat unit)	50.00
*c1ccc(Oc2ccc(NC(=O)c3cc(NC(=O)c4ccc(OC(C)=O)cc4)cc(C(=O)Nc4ccc(Oc5ccc(-c6nnc(*)o6)cc5)cc4)c3)cc2)cc1 (repeat unit)	270.00
*Nc1ccc(C(=O)c2ccc(NC(=O)c3cccc(C(*)=O)c3)cc2)cc1 (repeat unit)	253.20
*Oc1ccc(C2(c3ccc(Oc4ccc(C(=O)c5cccc6cccc(C(=O)c7ccc(*)cc7)c56)cc4)cc3)c3ccccc3-c3ccccc32)cc1 (repeat unit)	269.00
*C(F)(F)C(*)(F)OC(F)(F)C(F)(F)F (repeat unit)	29.00
*CCCCCCCCCCOc1ccc(/C=C2\CC/C(=C\c3ccc(OCCCCCCCCCCOP(=O)(O*)OCC)c(OC)c3)C2=O)cc1OC (repeat unit)	47.00
*c1ccc2c(c1)C(=O)N(c1ccc(N3C(=O)c4ccc(-c5c(-c6ccccc6)c(-c6ccccc6)c(-c6ccc(Sc7ccc(-c8c(-c9ccccc9)c(-c9ccccc9)c(*)c(-c9ccccc9)c8-c8ccccc8)cc7)cc6)c(-c6ccccc6)c5-c5ccccc5)cc4C3=O)cc1)C2=O (repeat unit)	344.00
*Sc1ccc(Sc2ccc(Sc3ccc4c(c3)Sc3ccc(*)cc3S4)cc2)cc1 (repeat unit)	154.00
*CC(*)c1ccc(COCCCCO)cc1 (repeat unit)	20.00

Source: the PolyMetriX glass transition set
